Laboratory results as given in patent US20210062146A1, “OPTIMIZED IN VITRO CELLULAR SYSTEM FOR BBB PERMEABILITY LINKED NEUROACTIVITY SCREENING” (priority 2019, published 2021).
Where two headings read alike, the source gives them in different places.

Tests used:
in vitro [1] = settings: human
[2] = test system: NVU model (direct contact triculture with SH-SY5Y neurons); assay: Permeability across optimized NVU model (triculture with SH-SY5Y neurons in basolateral chamber)
[3] = test system: NVU model (direct contact triculture with SH-SY5Y neurons); settings: for flux: human, 3 h, 50 μM
in vitro [4] = settings: human; remark: listed apart in the source
in vitro [5] = settings: human; remark: listed apart in the source
SH-SY5Y neurons = assay: BBB permeability linked neuroactivity (Neurite Outgrowth Staining Kit); settings: 50 μM initial apical concentration, 3 hour permeation, n=4
[6] = test system: direct contact triculture; assay: Triculture cell viability assay (MTT); assay type: cell-based, human; settings: following 3 hours of permeation; no significant change vs control (p>0.05)
[7] = human
[8] = test system: direct contact triculture (astrocytes, pericytes, HBEC-5i); settings: optimized triculture; radiolabeled marker, 0.25 μCi/mL in HBSS

Compound	flux [3] [pg/cm^2·sec]	Papp A→B at 180 min (in vitro [4]) [×10⁻⁶ cm/s]	Papp A→B at 150 min, 25 μM (in vitro [1]) [×10⁻⁶ cm/s]	viability of the triculture (MTT), percent of the control [6] [%]	also measured
N[C@@H](Cc1c[nH]cn1)C(=O)O [L-histidine]	–	–	–	–	Papp A→B at 90 min, 0.25 μCi/mL (in vitro [1]): 52.6 ×10⁻⁶ cm/s
CS(=O)(=O)CCNCc1ccc(-c2ccc3ncnc(Nc4ccc(OCc5cccc(F)c5)c(Cl)c4)c3c2)o1 [Lapatinib]	–	–	–	–	detection in the receiver chamber after 3 hours [2]: undetectable
Cn1c(=O)c2c(ncn2C)n(C)c1=O [caffeine]	269±14	30.7	28.9	104±25	viability at 3 h, 50 μM (in vitro [5]): 159 ± 34%; neurite outgrowth, percent of control NVU SH-SY5Y cells with vehicle (SH-SY5Y neurons): 122±26%
NC(=O)N1c2ccccc2C=Cc2ccccc21 [carbamazepine]	310±9	–	27.7	103±5	Papp [3]: 25.37±2.80×0^−6 cm/sec; viability at 3 h, 50 μM (in vitro [5]): 96 ± 18%
CN1CCN(C2=Nc3cc(Cl)ccc3Nc3ccccc32)CC1 [clozapine]	372±19	11.4	8.15	99±4	change in permeation rate across the NVU model in comparison to the optimized triculture alone [3]: significant increase; viability at 3 h, 50 μM (in vitro [5]): 143 ± 20%; neurite outgrowth, percent of control NVU SH-SY5Y cells with vehicle (SH-SY5Y neurons): 111±12%
COc1cc2c(c(OC)c1OC)-c1ccc(OC)c(=O)cc1[C@@H](NC(C)=O)CC2 [colchicine]	–	–	–	–	Papp A→B at 150 min, 25 μM [7]: 18.7 ×10⁻⁶ cm/s
OC[C@@H](O)[C@@H](O)[C@H](O)[C@H](O)CO [mannitol]	–	–	–	–	Papp A→B at 90 min, 0.25 μCi/mL (in vitro [1]): 19.9 ×10⁻⁶ cm/s
COc1ccc2[nH]cc(CCNC(C)=O)c2c1 [melatonin]	–	18.3	–	–	–
COc1cc2nc(N3CCN(C(=O)c4ccco4)CC3)nc(N)c2cc1OC [prazosin]	166±14	3.9	6.16	82±6	change in permeation rate across the NVU model in comparison to the optimized triculture alone [3]: significant decreases
PEG-4000	–	–	–	–	Papp [8]: 0.78×10^−5±0.00 cm/sec
inulin	–	–	–	–	Papp [8]: 1.55×10^−5±0.01 cm/sec
